Measurements from paper PMC4443670, “The C-terminal region of the motor protein MCAK controls its structure and activity through a conformational switch” (eLife, 2015).
“Also recorded” adds a separate entry of the source. Ends that are not written are not given here.

Tests used:
MCAK motor domain [1] = target: T1, MCAK motor domain (Homo sapiens, UniProt Q99661); experiment: X-ray crystal structure of motor domain with CT peptide (PDB 4UBF)
T1 construct: His-MCAK (183–583, M) and His-MCAK (1–583, NM) were subcloned in pET3aTr vector; made in house; host or cells: E. coli BL21(DE3) Codon plus
T1 sequence (Q99661 183-583): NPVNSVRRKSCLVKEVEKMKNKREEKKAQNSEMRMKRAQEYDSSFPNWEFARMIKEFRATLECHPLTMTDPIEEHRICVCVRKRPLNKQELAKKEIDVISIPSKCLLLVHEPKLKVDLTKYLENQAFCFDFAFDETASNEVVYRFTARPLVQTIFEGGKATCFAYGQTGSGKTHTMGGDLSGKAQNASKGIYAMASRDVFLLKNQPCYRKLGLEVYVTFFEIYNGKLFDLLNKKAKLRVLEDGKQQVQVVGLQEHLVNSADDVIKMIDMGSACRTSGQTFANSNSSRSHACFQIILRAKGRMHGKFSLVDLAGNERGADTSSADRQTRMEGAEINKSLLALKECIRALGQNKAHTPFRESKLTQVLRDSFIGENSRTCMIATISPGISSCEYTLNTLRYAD
Protocol: 1 mM MCAK motor domain (PDB:2HEH, Addgene, Cambridge MA, USA) was incubated with the CT peptide 709[…]720 (China peptides Co, Ltd, China) in a ratio of 1:2 for 1 hr at 4°C before setting up crystallization trials. Elongated rectangular crystals appeared by vapor diffusion after two days in sitting drops using 24% wt/vol PEG 1500 and 20% vol/vol Glycerol as a precipitant. Crystals were grown in MRC 2 Well Crystallization Plate (Hampton Research, Aliso Viejo, CA, USA) at 19°C. Crystals were cryoprotected in a solution containing 28% wt/vol PEG 1500 and 30% vol/vol Glycerol and flash-frozen in dry liquid nitrogen.
Diffraction data were recorded at Diamond Light Source on beamline ID24 at 100 K. Data were processed using XDS package ([Kabsch, 2010]) and SCALA operated through the CCP4 suite GUI ([Collaborative Computational Project, Number 4, 1994]). The structure of the MCAK motor-tail complex was solved by molecular replacement using the program MOLREP. The MCAK motor domain structure (PDB code: 2HEH) was used as a search model. Structure refinement was performed using Refmac5 and Phenix ([Adams et al., 2010]). Figures were prepared using PyMOL ([Delano, 2002]).

[2] = test system: taxol-stabilized microtubules; experiment: Microtubule depolymerisation assay; format: biochemical
Protocol: Microtubule depolymerization assays were performed essentially as described previously ([Hertzer et al., 2006]). MCAK was diluted to 100 nM in S-buffer containing 1 mM DTT and 2 mM Mg-ATP. For depolymerization assays of the motor domain in presence of the CT domain after GST cleavage and removal, 50 nM of motor domain and 100 nM of the CT domain were used. The microtubule depolymerization assay was initiated by the addition of 2 μM taxol-stabilized microtubules to a reaction buffer containing MCAK. Reactions were incubated at room temperature with increasing times and followed by centrifugation to separate microtubules from free tubulin. The data are represented as mean ± SD from three independent experiments.

[3] = test system: MCAK motor domain (Cys287); experiment: Covalent (disulphide) attachment of the CT domain to the motor domain; format: binding, human
Protocol: The GST-CTE712C and CTE712C domains were cross-linked to the motor domain by incubating them with the motor domain in a buffer containing 100 mM HEPES, pH 7.4, 150 mM NaCl but lacking DTT for 1 hr at 4°C. As a negative control the motor domain and the CTE712C domain were incubated in the identical buffer, supplemented with 5 mM DTT.

[4] = test system: taxol-stabilized microtubules; experiment: Microtubule cosedimentation assay, untreated microtubules; format: binding; conditions: for detection of CT domain in microtubule-bound pellet / supernatant: western blot, 50 nM motor domain, with and without DTT
Protocol: Full-length MCAK complex was diluted in S buffer (50 mM NaCl, 20 mM Hepes pH 7.0) to 50 nM, in absence of nucleotide to prevent MCAK-dependent microtubule depolymerisation. To assemble an MCAK motor-CT domain complex, 50 nM of the motor domain and 100 nM of the CT domain were used. Microtubule binding assays were performed as described ([Cheeseman et al., 2006]) using equal volumes of taxol-stabilized microtubules in BRB80 and MCAK in S buffer. MCAK was quantified using anti-MCAK antibody against the C terminus of MCAK (709[…]720), generated by GL Biochem (Shangai) Ltd (China) or anti-His antibody to probe for the motor domain alone (GE Healthcare Lifesciences, UK). The data from at least three independent experiments were fitted to a modified Hill equation to determine the apparent Kd.

GST-CT domain = experiment: Resin-based binding assay, CT domain self-interaction (CT domain to GST-CT); set-up: species or system human; conditions: GST-CT on glutathione agarose; GST-cleaved CT domain
Description: Kinesin-1 is regulated through an auto-inhibitory mechanism whereby one C-terminal tail binds at the interface of the two motors, such that it creates a second point of attachment in addition to the coiled coil region. This limits the head movement of one kinesin with respect to the other ([Stock et al., 1999]; [Hackney and Stock, 2000]; [Kaan et al., 2011]). We sought to test whether the C-terminal tail domain of MCAK, which has been proposed to regulate MCAK activity ([Moore and Wordeman, 2004]), was sufficient to interact with the motor domain. To do this, we expressed the N-terminal and motor region (residues 1–583, termed NM) or the motor region of MCAK along with the neck linker region (residues 181–583, termed M) as His-tagged proteins, and the C-terminal MCAK tail (residues 700–725, termed CT domain) as a GST fusion protein ([Moore and Wordeman, 2004]; [Hertzer et al., 2006]) (Figure 1A). […] We cannot however exclude a very tight interaction between two CT domains. […]
Protein expression was induced by addition of 0.5 mM IPTG to BL21(DE3) Codon plus cells transformed with respective constructs at OD600 of 0.7–0.8 for 16 hr at 18°C. […] Protein concentrations were determined with a combination of Bradford protein assays and densitometry of Coomassie-stained gels relative to a BSA standard. […]

MCAK motor domain [5] = target: T1, MCAK motor domain; experiment: Analytical size-exclusion chromatography (motor-CT complex formation); format: binding; conditions: Superdex 75 or Superose 6 10/300 GL; Coomassie-stained gel of fractions
Description: Full-length MCAK is a dimer in solution ([Maney et al., 2001]). Therefore, we sought to test whether the CT domain interacts with one or two motor domains. To define the stoichiometry of this interaction, we subjected the complex to analytical size-exclusion chromatography. The motor domain alone behaves as a monomer and eluted with an apparent size of ∼45 kDa. […] Using SDS-PAGE analysis, we confirmed that the shift to a larger complex was due to the interaction of the motor domain with the CT domain (Figure 1C, bottom). […] The predicted masses for complexes of one and two CT domains bound to two motor domains are ∼94.2 and 97.7 kDa, respectively. […] Since the CT domain is unlikely to dimerize alone (Figure 1B), we conclude that the MCAK CT domain induces the dimerization of the motor domains cooperatively.
Protein expression was induced by addition of 0.5 mM IPTG to BL21(DE3) Codon plus cells transformed with respective constructs at OD600 of 0.7–0.8 for 16 hr at 18°C. Cells were lysed by sonication in lysis buffer (50 mM Hepes, pH 7.4, 200 mM NaCl, 1 mM MgCl2, 1 mM PMSF, 1 mg/ml DNaseI, 2 mg/ml lysozyme, 10 mM Imidazole) and clarified at 20,000 rpm for 1 hr at 4°C. His-tagged and GST-tagged proteins were subsequently purified using Ni-NTA–agarose beads and glutathione-sepharose beads, respectively (GE Healthcare Life Sciences, UK)) according to the manufacturer's guidelines. MCAK constructs containing the motor domain were eluted with elution buffer (50 mM Hepes, pH 7.4, 200 mM NaCl, 1 mM MgCl2, 1 mM ATP, and 300 mM imidazole). Cleavage of the GST tag was performed using the GST-3C protease overnight at 4°C. […] Protein concentrations were determined with a combination of Bradford protein assays and densitometry of Coomassie-stained gels relative to a BSA standard. […]

Substance	binding mode in crystal structure (MCAK motor domain [1]; 3 Å, peptide 709QLEEQASRQISS720)	microtubule depolymerase activity of motor with CTE712C domain, absence of DTT ([2]; 50 nM motor domain, 100 nM CTE712C domain, 2 μM taxol-stabilized microtubules, no DTT, apparent activity)	microtubule depolymerase activity of motor with CTE712C domain, presence of DTT ([2]; 50 nM motor domain, 100 nM CTE712C domain, 2 μM taxol-stabilized microtubules, with DTT)	specific depolymerase activity of covalent MCAK motor-CTE712C complex ([2]; calculated by subtracting activity of motor alone (~50% of population))	binding to MCAK motor, presence of DTT ([3]; 5 mM DTT)	non-covalently bound MCAK fraction ([3]; motor-CTE712C domain complex, absence of DTT, Figure 6—figure supplement 1F)	formation of covalent complex with motor ([3]; oxidizing conditions (without DTT), 100 mM HEPES pH 7.4, 150 mM NaCl, 1 hr at 4°C)	reduction of fraction of MCAK motor bound to microtubules ([4]; 50 nM motor domain + CTE712C domain, oxidizing conditions (no DTT), absence of nucleotide) [%]	detection of CT domain in microtubule-bound pellet / supernatant [4]	RMSD of overall structure of MCAK on CT domain binding (MCAK motor domain [1]; 3 Å crystal structure) [Å]	interaction of CT domain with itself (GST-CT domain)	effect of free CT domain on MCAKS715E binding to microtubules ([4]; 100 nM full-length MCAKS715E, 2 μM taxol-stabilized microtubules, increasing free CT or CTS715E, repeated three times)	binding to / co-migration with motor domain by gel filtration (MCAK motor domain [5])
709QLEEQASRQISS720 [chemically synthesized peptide corresponding to the CT domain]	a single CT domain binds to both motor domains, close to their neck linker regions	–	–	–	–	–	–	–	–	–	–	–	–
CTE712C: CT domain with Glu712 mutated to cysteine, forms disulphide bridge with motor Cys287 (VIKALRLAMQLECQASRQISSKKRPQ; also: Cys712 forms disulfide with motor Cys287; UniProt Q99661 700-725, looked up, fragment E712C)	–	displayed reduced depolymerase activity	the depolymerase activity was similar to that of the wild type MCAK motor alone	strongly inhibits the depolymerase activity of MCAK	did not bind the MCAK motor	45–50%	formed a covalent complex	~50	did not detect	–	–	–	–
GPLGSIKALRLAMQLEEQASRQISSKKRPQ-OH [CT domain]	–	–	–	–	–	–	–	–	did not detect	0.863	unable to interact with itself through dimerization	decreased the affinity of MCAKS715E for microtubules	bound the motor domain independently of the GST; also recorded: the elution peak shifted to an earlier fraction, suggesting dimerization of the MCAK motor
